Values after ≈ are worked out from the molar mass of the structure shown. Active and inactive are the calls of the source. The rule behind the calls is not given here.
How the values were obtained:
COLO 320DM [1] = experiment: Antiproliferative activity against human COLO320DM cells assessed as inhibition of cell growth measured after 4 days by CellTiter-Glo assay; assay type: functional; conditions: 96 h
[2] = Stability in mouse liver microsomes assessed as parent compound remaining at 1 uM measured after 60 mins in presence of NADPH by LC-MS/MS analysis; assay type: ADME, Microsome; conditions: read-out: Stability
[3] = Stability in human liver microsomes assessed as parent compound remaining at 1 uM measured after 60 mins in presence of NADPH by LC-MS/MS analysis; assay type: ADME, Microsome; conditions: read-out: Stability
[4] = Protein binding in human plasma assessed as unbound fraction at 1 uM measured after 24 hrs by LC-MS/MS analysis; assay type: ADME, cell-free
[5] = Protein binding in mouse plasma assessed as unbound fraction at 1 uM measured after 24 hrs by LC-MS/MS analysis; assay type: ADME, cell-free
COLO 320DM [6] = experiment: Antiproliferative activity against human COLO320DM cells assessed inhibition of cell growth measured after 5 days by MTT assay; assay type: functional; conditions: 120 h
RKO = experiment: Antiproliferative activity against human RKO cells assessed inhibition of cell growth measured after 5 days by MTT assay; assay type: functional; conditions: 120 h
[7] = Dose normalized initial plasma concentration in Sprague-Dawley rat at 1 mg/kg, iv; assay type: ADME, organism-based; conditions: in vivo
[8] = Dose normalized AUC (infinity) in Sprague-Dawley rat at 1 mg/kg, iv; assay type: ADME, organism-based; conditions: in vivo
[9] = molecular target: T1, Poly [ADP-ribose] polymerase tankyrase-2 (Homo sapiens, UniProt Q9H2K2); experiment: Inhibition of recombinant human N-terminal TEV cleavage site-fused/FLAG-poly his-tagged TNKS2 ARC5-SAM-PARP domain (613 to 1166 residues) expressed in Escherichia coli assessed as reduction in auto-PARylation preincubated for 10 mins followed by biotinylated-NAD+ addition and measured after 45 mins by ELISA
T1 sequence (Q9H2K2 whole entry): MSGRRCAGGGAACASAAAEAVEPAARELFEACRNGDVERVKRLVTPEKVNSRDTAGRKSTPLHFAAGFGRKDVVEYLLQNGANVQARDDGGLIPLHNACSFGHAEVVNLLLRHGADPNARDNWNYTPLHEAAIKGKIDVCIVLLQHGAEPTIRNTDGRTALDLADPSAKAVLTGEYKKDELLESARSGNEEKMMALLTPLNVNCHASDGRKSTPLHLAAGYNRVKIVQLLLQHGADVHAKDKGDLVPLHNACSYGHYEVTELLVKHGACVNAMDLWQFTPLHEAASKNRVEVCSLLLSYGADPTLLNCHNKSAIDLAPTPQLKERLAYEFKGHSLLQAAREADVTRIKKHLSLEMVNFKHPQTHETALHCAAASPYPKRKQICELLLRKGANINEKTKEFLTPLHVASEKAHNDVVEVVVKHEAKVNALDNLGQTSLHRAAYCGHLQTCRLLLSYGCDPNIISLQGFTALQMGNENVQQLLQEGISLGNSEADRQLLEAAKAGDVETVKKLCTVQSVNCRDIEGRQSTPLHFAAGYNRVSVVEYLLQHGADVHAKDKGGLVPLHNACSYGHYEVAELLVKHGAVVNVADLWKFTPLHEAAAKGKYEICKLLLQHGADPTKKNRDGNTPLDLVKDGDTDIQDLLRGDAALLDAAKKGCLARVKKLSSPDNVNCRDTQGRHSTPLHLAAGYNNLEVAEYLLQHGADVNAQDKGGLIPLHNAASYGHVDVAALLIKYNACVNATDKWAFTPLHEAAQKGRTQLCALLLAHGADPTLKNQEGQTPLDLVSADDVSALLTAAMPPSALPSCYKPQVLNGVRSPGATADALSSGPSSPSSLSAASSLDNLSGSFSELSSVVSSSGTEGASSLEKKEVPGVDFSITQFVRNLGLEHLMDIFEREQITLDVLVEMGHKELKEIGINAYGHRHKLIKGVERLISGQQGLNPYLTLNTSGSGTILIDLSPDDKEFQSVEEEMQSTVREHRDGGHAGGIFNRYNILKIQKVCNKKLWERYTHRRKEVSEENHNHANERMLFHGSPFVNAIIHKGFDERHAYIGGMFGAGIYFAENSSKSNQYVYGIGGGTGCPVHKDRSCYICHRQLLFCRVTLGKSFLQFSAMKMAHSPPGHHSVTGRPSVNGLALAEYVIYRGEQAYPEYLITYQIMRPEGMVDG

MDR1 = experiment: Efflux ratio of permeability across basolateral to apical side over apical to basolateral side in MDCK2-MDR1 cells; assay type: ADME, cell-based, Canis lupus familiaris; conditions: dog, MDCK-MDR1
[10] = Efflux ratio of permeability across basolateral to apical side over apical to basolateral side in MDCK2 cells; assay type: ADME, cell-based, Canis lupus familiaris, MDCK-II; conditions: dog, mdck
[11] = Net efflux ratio of permeability across basolateral to apical side over apical to basolateral side in MDCK2-MDR1 cells to MDCK2 cells; assay type: ADME, cell-based, Canis lupus familiaris; conditions: dog, mdck
[12] = molecular target: T2, Tankyrase 1/2 (Homo sapiens) (UniProt Q9H2K2+O95271); experiment: Inhibition of TNKS/TNKS2-mediated WNT/beta-catenin signaling pathway in human COLO320DM cells assessed as upregulation of AXIN2 expression at 0.33 uM measured after 16 hrs by Western blot analysis; assay type: cell-based
[13] = molecular target: T2, Tankyrase 1/2 (Homo sapiens); experiment: Inhibition of TNKS/TNKS2-mediated WNT/beta-catenin signaling pathway in human COLO320DM cells assessed as reduction in beta-catenin expression at 0.33 uM measured after 16 hrs by Western blot analysis; assay type: cell-based
[14] = molecular target: T3, Poly [ADP-ribose] polymerase tankyrase-1 (Homo sapiens, UniProt O95271)
T3 sequence (O95271 whole entry): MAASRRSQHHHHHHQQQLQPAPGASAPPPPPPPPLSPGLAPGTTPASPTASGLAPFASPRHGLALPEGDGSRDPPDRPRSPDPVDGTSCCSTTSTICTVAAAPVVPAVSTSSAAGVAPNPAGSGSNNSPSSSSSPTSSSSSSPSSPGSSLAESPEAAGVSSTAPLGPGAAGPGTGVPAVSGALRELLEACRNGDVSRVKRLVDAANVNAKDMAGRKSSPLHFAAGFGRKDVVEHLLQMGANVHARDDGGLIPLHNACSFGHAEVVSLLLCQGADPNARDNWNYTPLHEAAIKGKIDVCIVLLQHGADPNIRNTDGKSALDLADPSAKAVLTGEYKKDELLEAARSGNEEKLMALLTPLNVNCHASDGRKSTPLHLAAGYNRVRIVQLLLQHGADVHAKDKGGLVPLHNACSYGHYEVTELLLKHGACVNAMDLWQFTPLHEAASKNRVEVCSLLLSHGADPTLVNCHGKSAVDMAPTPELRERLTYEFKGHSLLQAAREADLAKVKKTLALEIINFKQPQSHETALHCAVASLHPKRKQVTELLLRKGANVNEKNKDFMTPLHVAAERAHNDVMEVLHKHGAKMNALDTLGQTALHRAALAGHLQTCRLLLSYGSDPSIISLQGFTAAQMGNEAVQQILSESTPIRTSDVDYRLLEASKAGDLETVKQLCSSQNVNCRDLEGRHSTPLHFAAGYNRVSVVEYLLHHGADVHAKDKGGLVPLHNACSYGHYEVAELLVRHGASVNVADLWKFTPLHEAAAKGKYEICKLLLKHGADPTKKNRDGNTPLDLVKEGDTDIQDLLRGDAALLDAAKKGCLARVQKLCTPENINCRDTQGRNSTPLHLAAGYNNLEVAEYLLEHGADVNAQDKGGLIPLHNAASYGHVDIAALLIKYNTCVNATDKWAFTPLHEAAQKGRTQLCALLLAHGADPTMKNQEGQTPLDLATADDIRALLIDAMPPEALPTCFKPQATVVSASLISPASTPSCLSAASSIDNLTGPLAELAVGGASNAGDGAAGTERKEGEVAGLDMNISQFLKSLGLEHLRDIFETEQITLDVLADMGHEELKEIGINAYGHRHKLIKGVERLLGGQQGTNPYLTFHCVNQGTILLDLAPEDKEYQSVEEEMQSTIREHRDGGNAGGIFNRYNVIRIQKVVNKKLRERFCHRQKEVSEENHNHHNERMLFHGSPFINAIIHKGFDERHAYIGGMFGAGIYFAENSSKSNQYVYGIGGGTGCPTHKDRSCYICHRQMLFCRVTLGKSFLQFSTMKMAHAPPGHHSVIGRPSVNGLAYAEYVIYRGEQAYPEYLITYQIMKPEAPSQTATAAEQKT
Description: Inhibition of recombinant human N-terminal TEV cleavage site-fused/FLAG-poly his-tagged TNKS SAM-PARP domain (1024 to 1327 residues) expressed in Escherichia coli assessed as reduction in auto-PARylation preincubated for 10 mins followed by biotinylated-NAD+ addition and measured after 45 mins by ELISA

Tankyrase 1/2 [15] = molecular target: T4, Tankyrase 1/2 (Homo sapiens, UniProt Q9H2K2+O95271); conditions: hek293
T4 sequence (Q9H2K2 whole entry): T1 sequence (Q9H2K2 whole entry)
T4 sequence (O95271 whole entry): T3 sequence (O95271 whole entry)
Description: Inhibition of TNKS/TNKS2 (unknown origin) expressed in HEK293 cells assessed as reduction in Wnt-signaling measured after 24 hrs by TCF-luciferase reporter gene assay

Tankyrase 1/2 [16] = molecular target: T4, Tankyrase 1/2
Description: Inhibition of TNKS/TNKS2 (unknown origin) expressed in human DLD1 cells assessed as reduction in Wnt-signaling measured after 24 hrs by TCF-luciferase reporter gene assay

physchem = conditions: phosphate buffered saline, pH 7.4

GI50 (COLO 320DM [1]) [nM]	remaining at 1 h, 1 µM [2] [%]	remaining at 1 h, 1 µM [3] [%]	fraction unbound at 24 h, 1 µM [4]	fraction unbound at 24 h, 1 µM [5]	GI50 (COLO 320DM [6]) [nM]	C0/dose [7] [µmol/L]	AUC/dose [8] [µmol·h/L]	IC50 [9] [nM]	efflux ratio (MDR1)	efflux ratio [10]	Ratio [11]	inhibition [12]	inhibition [13]	IC50 [14] [nM]	IC50 (Tankyrase 1/2 [15]) [nM]	IC50 (Tankyrase 1/2 [16]) [nM]	solubility at 1 h, 200 µM (physchem) [µg/mL]	Structure (SMILES)	GI50 (RKO) [µM]
1500	95.8	100	0.028	0.035	430	1.54	0.79											CS(=O)(=O)c1ccc(-c2nnc(/C=C/c3nnc(-c4ccc(C#N)cc4)o3)n2-c2ccccc2Cl)nc1	8.9
300	93.3	97.6						9.9	0.3	0.3	1	inactive	inactive	4.2	507	1877	98.4 (≈ 209 µM)	CN1CCCc2c1nc(N1CCC3(CC1)C(=O)N(C)c1cc(OCC(=O)O)cc(F)c13)[nH]c2=O	
